Data reported in US20040242650A1, “Extended dosing regimen” (priority 2003, published 2004).
Read-outs that look alike come from different tables or passages of the source. Marks after values point to notes of the source that are not given here.

How the values were obtained:
[1] = tested on: MDA-MB-468 breast subcutaneous flank xenografts; test: MDA-MB-468 breast flank xenograft model; assay type: in vivo, female nude mice; settings: for Tumor Volume Day 38: mean ± SEM; for % ILS: median, time to 1 cc vs vehicle; for % T/C Day 38: treated vs vehicle
Protocol: Efficacy of N-[2-[(4-hydroxyphenyl)amino]-3-pyridyl]-4-methoxybenzenesulfonamide was tested in Calu-6 NSCL, MDA-MB-468 breast and HT-29 colon carcinoma xenografts grown in nude mice. The objectives were determination of the efficacy of N-[2-[(4-hydroxyphenyl)amino]-3-pyridyl]-4-methoxybenzenesulfonamide as a single agent and in combination with cisplatin in the Calu-6 NSCL flank xenograft model; determination the efficacy of N-[2-[(4-hydroxyphenyl)amino]-3-pyridyl]-4-methoxybenzenesulfonamide as a single agent and in combination with docetaxel in the MDA-MB 468 breast flank xenograft model; determination of the efficacy of N-[2-[(4-hydroxyphenyl)amino]-3-pyridyl]-4-methoxybenzenesulfonamide as a single agent and in combination with 5-FU in the HT-29 colon flank xenograft model; and comparison the efficacy of N-[2-[(4-hydroxyphenyl)amino]-3-pyridyl]-4-methoxybenzenesulfonamide administered on 2 different schedules (q.d. vs b.i.d.) in the Calu-6 and HT-29 xenogaft model.
Following inoculation of tumor cells, tumors were passaged three times in mice before using the fragments to generate single cell suspensions. Multiple animals were used as donors. Single cell suspensions were generated by homogenizing the minced tumor tissue in RPMI 1640 media. Cell suspensions were washed three times to remove debris and other foreign materials. Viable cells were counted by trypan blue exclusion technique using a hemocytometer. Mice were injected subcutaneously with 0.5 ml of the cell suspension containing 1×10^6 cells.
Efficacy of N-[2-[(4-hydroxyphenyl)amino]-3-pyridyl]-4-methoxybenzenesulfonamide in the MDA-MB-468 Breast Flank Xenograft Model. Tumor cells derived from serially passaged tumor fragments were inoculated s.c. in female nude mice on day 0. On day 10, mice bearing established tumors were size matched at ˜231 mm^3 and placed into the following groups:
N-[2-[(4-hydroxyphenyl)amino]-3-pyridyl]-4-methoxybenzenesulfonamide—100, and 75 mg/kg/day (p.o., q.d., 5 days on, 5 days off ×2)
N-[2-[(4-hydroxyphenyl)amino]-3-pyridyl]-4-methoxybenzenesulfonamide—50 and 0 mg/kg/day (p.o., q.d. ×21)
Docetaxel—40, 33.3, 16.7 and 0 mg/kg/day (i.v., qd ×1)

[2] = Pharmacokinetic profiles of patients on the extended dosing regimen (plasma, LCMS/MS, day 15); assay type: in vivo; settings: for AUC / half-life / Cmax / concentration at 15 day / Tmax: human, plasma, po; for concentration at 15 day: read-out: Cmin
Protocol: A total of 43 patients were enrolled in the study. The tumor types were as follows: colorectal (23), sarcoma (5), mesothelioma (3), salivary gland (2), endometrial (2), unknown (2), hepatoma (1), melanoma (1), renal cell (1), lung (1), ovary (1), and granulosa cell (1). Patients were treated once a day (QD) or twice a day (BID) for 21 days with N-[2-[(4-hydroxyphenyl)amino]-3-pyridyl]-4-methoxybenzenesulfonamide followed by a 7-day period where no drug was received. Doses were escalated by 50 mg/day (25 mg BID). Three patients were initially treated at each dose level. […] If additional patients experienced dose-limiting toxicity, on occasion the dose level was expanded to nine patients to further assess tolerability. Response assessment was performed every two cycles.
In evaluating the pharmacokinetic profiles of the patients, plasma samples were collected pre-dose and over 6 hours following dosing on day 15. Plasma concentrations of N-[2-[(4-hydroxyphenyl)amino]-3-pyridyl]-4-methoxybenzenesulfonamide were determined by a validated LCMS/MS assay. Pharmacokinetic parameter estimates were obtained using noncompartmental methods, and included maximum observed concentration (Cmax), time to Cmax (Tmax), minimum observed concentration (Cmin), half-life (t1/2), and area under the plasma concentration-time profile over a dosing interval (AUCτ). To facilitate calculation of day 15 AUCs, pre-dose concentrations at the beginning and end of the dosing interval were assumed to be equal. Results are summarized below (Table 2).

[3] = 75 mg/kg/day p.o., q.d., (5 days on, 5 days off) x2
[4] = 100 mg/kg/day p.o., q.d., (5 days on, 5 days off) x2
[5] = 25 mg, 25 mg BID oral, day 15, plasma, N=2
[6] = 25 mg, 25 mg QD oral, day 15, plasma, N=4
[7] = 50 mg, 50 mg BID oral, day 15, plasma, N=2
[8] = 50 mg, 50 mg QD oral, day 15, plasma, N=3
[9] = 75 mg, 75 mg BID oral, day 15, plasma, N=3
[10] = 100 mg, 100 mg BID oral, day 15, plasma, N=3
[11] = 100 mg, 100 mg QD oral, day 15, plasma, N=3
[12] = 200 mg, 200 mg QD oral, day 15, plasma, N=2

For `COc1ccc(S(=O)(=O)Nc2cccnc2Nc2ccc(O)cc2)cc1` [N-[2-[(4-hydroxyphenyl)amino]-3-pyridyl]-4-methoxybenzenesulfonamide], the “Tumor Volume Day 38” value ([1]; 50 mg/kg/day p.o., q.d x21) was 1244 ± 59 mm^3, the “% ILS” value ([1]; 50 mg/kg/day p.o., q.d x21) was 41*** % and the “% T/C Day 38” value ([1]; 50 mg/kg/day p.o., q.d x21) was 46*** %. For the same compound, the “Tumor Volume Day 38” value [1, 3] was 851 ± 55 mm^3, the “% ILS” value [1, 3] was 52*** % and the “% T/C Day 38” value [1, 3] was 33*** %. The “Tumor Volume Day 38” value [1, 4] was 638 ± 48 mm^3, the “% ILS” value [1, 4] was 78*** % and the “% T/C Day 38” value [1, 4] was 25*** %. For the same compound, the “antitumor activity as a single agent” value ([1]; 100 and 75 mg/kg/day 5 days on, 5 days off for 2 cycles, 50 mg/kg/day daily) was “dose-dependent antitumor activity”, the “efficacy of combination compared to single agents alone (summary)” value ([1]; in combination with docetaxel) was “equal to or greater than additive efficacy” and the “response in combination with docetaxel” value ([1]; in combination with docetaxel at 33.3 mg/kg/day, all three doses tested) was “greater than additive responses”. For the same compound, the “efficacy as a single agent (summary)” value ([1]; single agent) was “dose-dependent efficacy”, the Cmin ([2]; 150 mg QD oral, day 15, plasma, N=3) was 700 ± 400 ng/mL and the “accumulation of plasma concentrations” value ([2]; QD or BID dosing) was “accumulated minimally”. For the same compound, the “variation of Tmax and t1/2 with dose” value ([2]; across doses studied) was “did not appear to vary with dose”, the “dose proportionality of plasma concentrations” value ([2]; across the range of doses studied) was “dose-proportional (linear) pharmacokinetics” and the “Cmin concentrations, BID vs QD regimens” value ([2]; for a given daily dose) was “tended to be greater for BID regimens compared to QD regimens”. The AUC ([2]; 25 mg, 25 mg BID oral, day 15, N=2, AUC0-12) was 9100 ± 400 ng·h/mL, the half-life ([2]; 25 mg, 25 mg BID oral, day 15, N=2, harmonic mean and pseudo standard deviation, read-out: t1/2 (converted)) was 3.8 ± 1.7 h and the Cmax [2, 5] was 2000 ± 600 ng/mL. The concentration at 15 day [2, 5] was 300 ng/mL, the Tmax ([2]; 25 mg, 25 mg BID oral, day 15, plasma, N=2, read-out: Tmax) was 2.3 ± 2.5 h and the AUC ([2]; 25 mg, 25 mg QD oral, day 15, N=4, AUC0-24) was 9000 ± 2900 ng·h/mL. For the same compound, the half-life ([2]; 25 mg, 25 mg QD oral, day 15, N=4, harmonic mean and pseudo standard deviation, read-out: t1/2 (converted)) was 6.3 ± 0.2 h, the Cmax [2, 6] was 1700 ± 300 ng/mL and the concentration at 15 day [2, 6] was 100 ng/mL. It also gave a Tmax ([2]; 25 mg, 25 mg QD oral, day 15, plasma, N=4, read-out: Tmax) of 1.3 ± 0.5 h, an AUC ([2]; 50 mg, 50 mg BID oral, day 15, N=2, AUC0-12) of 16400 ± 3200 ng·h/mL and a half-life ([2]; 50 mg, 50 mg BID oral, day 15, N=2, harmonic mean and pseudo standard deviation, read-out: t1/2 (converted)) of 4 ± 0.6 h. The Cmax [2, 7] was 5000 ± 900 ng/mL, the concentration at 15 day [2, 7] was 400 ± 200 ng/mL and the Tmax ([2]; 50 mg, 50 mg BID oral, day 15, plasma, N=2, read-out: Tmax) was 0.5 h. For the same compound, the AUC ([2]; 50 mg, 50 mg QD oral, day 15, N=3, AUC0-24) was 20400 ± 5000 ng·h/mL, the half-life ([2]; 50 mg, 50 mg QD oral, day 15, N=3, harmonic mean and pseudo standard deviation, read-out: t1/2 (converted)) was 4.6 ± 2.4 h and the Cmax [2, 8] was 3500 ± 200 ng/mL. The concentration at 15 day [2, 8] was 100 ± 100 ng/mL, the Tmax ([2]; 50 mg, 50 mg QD oral, day 15, plasma, N=3, read-out: Tmax) was 1.7 ± 0.6 h and the AUC ([2]; 75 mg, 75 mg BID oral, day 15, N=3, AUC0-12) was 17000 ± 3600 ng·h/mL. For the same compound, the half-life ([2]; 75 mg, 75 mg BID oral, day 15, N=3, harmonic mean and pseudo standard deviation, read-out: t1/2 (converted)) was 5.3 ± 0.9 h, the Cmax [2, 9] was 3700 ± 1200 ng/mL and the concentration at 15 day [2, 9] was 600 ng/mL. The Tmax ([2]; 75 mg, 75 mg BID oral, day 15, plasma, N=3, read-out: Tmax) was 1.5 ± 0.9 h, the AUC ([2]; 100 mg, 100 mg BID oral, day 15, N=3, AUC0-12) was 24100 ± 10000 ng·h/mL and the half-life ([2]; 100 mg, 100 mg BID oral, day 15, N=3, harmonic mean and pseudo standard deviation, read-out: t1/2 (converted)) was 6.1 ± 2.3 h. The Cmax [2, 10] was 3500 ± 1300 ng/mL, the concentration at 15 day [2, 10] was 900 ± 400 ng/mL and the Tmax ([2]; 100 mg, 100 mg BID oral, day 15, plasma, N=3, read-out: Tmax) was 2.3 ± 1.5 h. It also gave an AUC ([2]; 100 mg, 100 mg QD oral, day 15, N=3, AUC0-24) of 39500 ± 7900 ng·h/mL, a half-life ([2]; 100 mg, 100 mg QD oral, day 15, N=3, harmonic mean and pseudo standard deviation, read-out: t1/2 (converted)) of 5.8 ± 1.3 h and a Cmax [2, 11] of 8400 ± 900 ng/mL. It also gave a concentration at 15 day [2, 11] of 200 ± 100 ng/mL, a Tmax ([2]; 100 mg, 100 mg QD oral, day 15, plasma, N=3, read-out: Tmax) of 1.7 ± 0.6 h and an AUC ([2]; 150 mg, 150 mg QD oral, day 15, N=3, AUC0-24) of 55100 ± 12200 ng·h/mL. For the same compound, the half-life ([2]; 150 mg, 150 mg QD oral, day 15, N=3, harmonic mean and pseudo standard deviation, read-out: t1/2 (converted)) was 8.5 ± 1.5 h, the Cmax ([2]; 150 mg, 150 mg QD oral, day 15, plasma, N=3) was 8200 ± 2300 ng/mL and the Tmax ([2]; 150 mg, 150 mg QD oral, day 15, plasma, N=3, read-out: Tmax) was 1.2 ± 0.8 h. It also gave an AUC ([2]; 200 mg, 200 mg QD oral, day 15, N=2, AUC0-24) of 60200 ± 34200 ng·h/mL, a half-life ([2]; 200 mg, 200 mg QD oral, day 15, N=2, harmonic mean and pseudo standard deviation, read-out: t1/2 (converted)) of 7 ± 1 h and a Cmax [2, 12] of 9100 ± 5900 ng/mL. The concentration at 15 day [2, 12] was 500 ± 300 ng/mL, the Tmax ([2]; 200 mg, 200 mg QD oral, day 15, plasma, N=2, read-out: Tmax) was 2 h and the Tmax ([2]; oral dosing, all regimens, read-out: overall mean Tmax) was 1.5 h. The half-life ([2]; oral dosing, all regimens, read-out: overall mean t1/2 (converted)) was 6 h and the “absorption following oral dosing” value ([2]; oral dosing, patients) was “rapidly absorbed”.
